Reference: patent US8952024B2, “Herbicidal pyrimidone derivatives” (E I du Pont de Nemours and Company, priority 2009, dated 2015)

Legend:
Type in all cases: in vivo
[1] = tested on: barnyardgrass (Echinochloa crus-galli); assay: Test B flooded paddy test; settings: for Plant response rating, Flood, Barnyardgrass: 250 g ai/ha, flooded paddy test, visual rating on 0 to 100 scale (0 no effect, 100 complete control) after 13 to 15 days; for Plant response rating, Barnyardgrass: Flood (flooded paddy test), 13 to 15 days; for Barnyardgrass plant response rating: Flood, scale 0 to 100 (0 no effect, 100 complete control)
Procedure, shortened: (§1)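 Rice, umbrella sedge, ducksalad and barnyardgrass were grown to the 2-leaf stage, flooded to 3 cm, and compound was applied directly to the paddy water, with that depth kept throughout. After 13 to 15 days in the greenhouse, plants were visually rated against controls on a 0 (no effect) to 100 (complete control) scale.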

rice (Oryza sativa) = assay: Test B flooded paddy test; settings: for Plant response rating, Flood, Rice: 250 g ai/ha, flooded paddy test, visual rating on 0 to 100 scale (0 no effect, 100 complete control) after 13 to 15 days; for Plant response rating, Rice: Flood (flooded paddy test), 13 to 15 days; for Rice plant response rating: Flood, scale 0 to 100 (0 no effect, 100 complete control)
Procedure, shortened: as §1

[2] = tested on: ducksalad (Heteranthera limosa); assay: Test B flooded paddy test; settings: for Plant response rating, Flood, Ducksalad: 250 g ai/ha, flooded paddy test, visual rating on 0 to 100 scale (0 no effect, 100 complete control) after 13 to 15 days; for Plant response rating, Ducksalad: Flood (flooded paddy test), 13 to 15 days; for Ducksalad plant response rating: Flood, scale 0 to 100 (0 no effect, 100 complete control)
Procedure, shortened: as §1

[3] = tested on: umbrella sedge (Cyperus difformis); assay: Test B flooded paddy test; settings: for Plant response rating, Flood, Sedge, Umbrella: 250 g ai/ha, flooded paddy test, visual rating on 0 to 100 scale (0 no effect, 100 complete control) after 13 to 15 days; for Plant response rating, Sedge, Umbrella: Flood (flooded paddy test), 13 to 15 days; for Sedge, Umbrella plant response rating: Flood, scale 0 to 100 (0 no effect, 100 complete control)
Procedure, shortened: as §1

[4] = tested on: winter barley (Hordeum vulgare); assay: Test B postemergence plant response
Procedure, shortened: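 Visual ratings from 0 (no effect) to 100 (complete control), made against controls 13–15 days after treatment, kept in a greenhouse. Compounds were applied postemergence to potted plants at the 1- to 4-leaf stage (2–18 cm).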

[5] = tested on: morningglory (Ipomoea spp.); assay: Test A pre-/postemergence plant response
Procedure, shortened: (§2)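 Visual injury rating on a 0–100 scale (0 = no effect, 100 = complete control) was made versus untreated controls after about ten days in the greenhouse. Compounds, formulated in a non-phytotoxic solvent mix containing surfactant, were sprayed preemergence onto loam/sand soil and postemergence onto one- to two-leaf plants.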

[6] = tested on: barnyardgrass (Echinochloa crus-galli); assay: Test A pre-/postemergence plant response
Procedure, shortened: as §2

[7] = tested on: velvetleaf (Abutilon theophrasti); assay: Test A pre-/postemergence plant response
Procedure, shortened: as §2

[8] = tested on: large crabgrass (Digitaria sanguinalis); assay: Test A pre-/postemergence plant response
Procedure, shortened: as §2

corn (Zea mays) = assay: Test A pre-/postemergence plant response
Procedure, shortened: as §2

[9] = tested on: pigweed (Amaranthus retroflexus); assay: Test A pre-/postemergence plant response
Procedure, shortened: as §2

[10] = tested on: wheat (Triticum aestivum); assay: Test A pre-/postemergence plant response
Procedure, shortened: as §2

[11] = tested on: giant foxtail (Setaria faberii); assay: Test A pre-/postemergence plant response
Procedure, shortened: as §2

[12] = 31 g ai/ha, scale of 0 to 100 where 0 is no effect and 100 is complete control
[13] = 62 g ai/ha, scale 0 to 100, 0 is no effect, 100 is complete control
[14] = 125 g ai/ha, scale 0 to 100, 0 is no effect, 100 is complete control
[15] = Postemergence, 125 g ai/ha, visual injury, 0 to 100 scale (0 no effect, 100 complete control), approx. ten days
[16] = Postemergence, 500 g ai/ha, 0 to 100 scale, 0 = no effect, 100 = complete control, approx. ten days
[17] = Preemergence, 125 g ai/ha, 0 to 100 scale, 0 = no effect, 100 = complete control
[18] = Preemergence, 500 g ai/ha, visual injury, 0 to 100 scale (0 no effect, 100 complete control), approx. ten days
[19] = 62 g ai/ha, scale of 0 to 100 where 0 is no effect and 100 is complete control
[20] = Postemergence, 125 g ai/ha, scale 0 to 100 (0 no effect, 100 complete control)
[21] = Postemergence, 125 g ai/ha, 0 to 100 scale where 0 is no effect and 100 is complete control
[22] = Postemergence, 500 g ai/ha, visual injury, 0 to 100 scale (0 no effect, 100 complete control), approx. ten days
[23] = Preemergence, 500 g ai/ha, 0 to 100 scale, 0 = no effect, 100 = complete control

O=C1CCCC([O-])=C1C(=O)c1cnc(-c2ccccc2)n(-c2ccccc2)c1=O.[K+] [Compound 14]
Plant response rating, Flood, Barnyardgrass [1]: 0
Plant response rating, Barnyardgrass [1, 12]: 0
Plant response rating, Barnyardgrass [1, 13]: 0
Plant response rating, Barnyardgrass [1, 14]: 0
Plant response rating, Flood, Rice (rice (Oryza sativa)): 0
Plant response rating, Rice (rice (Oryza sativa); [12]): 0
Plant response rating, Rice (rice (Oryza sativa); [13]): 0
Plant response rating, Rice (rice (Oryza sativa); [14]): 0
Plant response rating, Flood, Ducksalad [2]: 40
Plant response rating, Ducksalad [2, 12]: 0
Plant response rating, Ducksalad [2, 13]: 20
Plant response rating, Ducksalad [2, 14]: 30
Plant response rating, Flood, Sedge, Umbrella [3]: 40
Plant response rating, Sedge, Umbrella [3, 12]: 0
Plant response rating, Sedge, Umbrella [3, 13]: 0
Plant response rating, Sedge, Umbrella [3, 14]: 0
Plant response rating, Barley ([4]; Postemergence, 31 g ai/ha, scale 0 to 100 (0 no effect, 100 complete control)): 0
Plant response rating, Barley ([4]; Postemergence, 62 g ai/ha, scale 0 (no effect) to 100 (complete control), 13 to 15 days): 0
Plant response rating, Barley ([4]; Postemergence, 125 g ai/ha, scale 0 to 100 (0 no effect, 100 complete control), 13 to 15 days): 5
Barley plant response rating ([4]; Postemergence, 250 g ai/ha, scale 0 to 100): 40
Morningglory plant response rating [5, 15]: 20
Plant response rating, Morningglory [5, 16]: 100
Plant response rating, Morningglory [5, 17]: 10
Plant response rating, Morningglory [5, 18]: 60
Barnyardgrass plant response rating [6, 15]: 30
Plant response rating, Barnyardgrass [6, 16]: 80
Plant response rating, Barnyardgrass [6, 17]: 10
Plant response rating, Barnyardgrass [6, 18]: 70
Velvetleaf plant response rating [7, 15]: 100
Plant response rating, Velvetleaf [7, 16]: 100
Plant response rating, Velvetleaf [7, 17]: 90
Plant response rating, Velvetleaf [7, 18]: 100
Crabgrass, Large plant response rating [8, 15]: 30
Plant response rating, Crabgrass, Large [8, 16]: 90
Plant response rating, Crabgrass, Large [8, 17]: 30
Plant response rating, Crabgrass, Large [8, 18]: 90
Corn plant response rating (corn (Zea mays); [15]): 0
Plant response rating, Corn (corn (Zea mays); [16]): 20
Plant response rating, Corn (corn (Zea mays); [17]): 0
Plant response rating, Corn (corn (Zea mays); [18]): 0
Pigweed plant response rating [9, 15]: 80
Plant response rating, Pigweed [9, 16]: 100
Plant response rating, Pigweed [9, 17]: 100
Plant response rating, Pigweed [9, 18]: 100
Wheat plant response rating [10, 15]: 0
Plant response rating, Wheat [10, 16]: 0
Plant response rating, Wheat [10, 17]: 0
Plant response rating, Wheat [10, 18]: 0
Foxtail, Giant plant response rating [11, 15]: 30
Plant response rating, Foxtail, Giant [11, 16]: 90
Plant response rating, Foxtail, Giant [11, 17]: 40
Plant response rating, Foxtail, Giant [11, 18]: 90

CCc1cccc(-n2c(-c3ccccc3)ncc(C(=O)C3=C(O)CCCC3=O)c2=O)c1 [Compound 220]
Plant response rating, Flood, Barnyardgrass [1]: 40
Plant response rating, Barnyardgrass [1, 19]: 0
Plant response rating, Barnyardgrass [1, 14]: 30
Barnyardgrass plant response rating ([1]; 31 g ai/ha): 0
Plant response rating, Flood, Rice (rice (Oryza sativa)): 70
Plant response rating, Rice (rice (Oryza sativa); [19]): 15
Plant response rating, Rice (rice (Oryza sativa); [14]): 50
Rice plant response rating (rice (Oryza sativa); 31 g ai/ha): 0
Plant response rating, Flood, Ducksalad [2]: 100
Plant response rating, Ducksalad [2, 19]: 40
Plant response rating, Ducksalad [2, 14]: 85
Ducksalad plant response rating ([2]; 31 g ai/ha): 30
Plant response rating, Flood, Sedge, Umbrella [3]: 85
Plant response rating, Sedge, Umbrella [3, 19]: 0
Plant response rating, Sedge, Umbrella [3, 14]: 20
Sedge, Umbrella plant response rating ([3]; 31 g ai/ha): 0
Plant response rating, Barley ([4]; Postemergence, 31 g ai/ha, 0 to 100 scale (0 no effect, 100 complete control)): 10
Plant response rating, Barley [4, 20]: 10
Plant response rating, Barley ([4]; Postemergence, 250 g ai/ha, scale 0 to 100 (0 no effect, 100 complete control), 13 to 15 days): 15
Plant response rating, Barley ([4]; Postemergence, 62 g ai/ha, scale 0 to 100 (0 no effect, 100 complete control)): 10
Plant response rating, Morningglory [5, 21]: 100
Morningglory plant response rating [5, 22]: 100
Plant response rating, Morningglory [5, 17]: 0
Plant response rating, Morningglory [5, 23]: 70
Plant response rating, Barnyardgrass [6, 21]: 90
Barnyardgrass plant response rating [6, 22]: 90
Plant response rating, Barnyardgrass [6, 17]: 10
Plant response rating, Barnyardgrass [6, 23]: 90
Plant response rating, Velvetleaf [7, 21]: 100
Velvetleaf plant response rating [7, 22]: 100
Plant response rating, Velvetleaf [7, 17]: 40
Plant response rating, Velvetleaf [7, 23]: 100
Plant response rating, Crabgrass, Large [8, 21]: 50
Crabgrass, Large plant response rating [8, 22]: 90
Plant response rating, Crabgrass, Large [8, 17]: 20
Plant response rating, Crabgrass, Large [8, 23]: 90
Plant response rating, Corn (corn (Zea mays); [21]): 0
Corn plant response rating (corn (Zea mays); [22]): 30
Plant response rating, Corn (corn (Zea mays); [17]): 0
Plant response rating, Corn (corn (Zea mays); [23]): 10
Plant response rating, Pigweed [9, 21]: 100
Pigweed plant response rating [9, 22]: 100
Plant response rating, Pigweed [9, 17]: 80
Plant response rating, Pigweed [9, 23]: 100
Plant response rating, Wheat [10, 21]: 0
Wheat plant response rating [10, 22]: 20
Plant response rating, Wheat [10, 17]: 0
Plant response rating, Wheat [10, 23]: 0
Plant response rating, Foxtail, Giant [11, 21]: 20
Foxtail, Giant plant response rating [11, 22]: 60
Plant response rating, Foxtail, Giant [11, 17]: 0
Plant response rating, Foxtail, Giant [11, 23]: 40

CCCn1c(-c2cccc(OC)c2)ncc(C(=O)C2=C(O)CCCC2=O)c1=O [Compound 100]
Plant response rating, Flood, Barnyardgrass [1]: 75
Plant response rating, Barnyardgrass [1, 19]: 45
Plant response rating, Barnyardgrass [1, 14]: 60
Barnyardgrass plant response rating ([1]; 31 g ai/ha): 20
Plant response rating, Rice (rice (Oryza sativa); [19]): 30
Plant response rating, Rice (rice (Oryza sativa); [14]): 35
Rice plant response rating (rice (Oryza sativa); 31 g ai/ha): 0
Plant response rating, Flood, Ducksalad [2]: 85
Plant response rating, Ducksalad [2, 19]: 75
Plant response rating, Ducksalad [2, 14]: 85
Ducksalad plant response rating ([2]; 31 g ai/ha): 35
Plant response rating, Flood, Sedge, Umbrella [3]: 85
Plant response rating, Sedge, Umbrella [3, 19]: 75
Plant response rating, Sedge, Umbrella [3, 14]: 80
Sedge, Umbrella plant response rating ([3]; 31 g ai/ha): 40
Plant response rating, Barley ([4]; 31 g ai/ha, postemergence, scale 0 to 100, 0 is no effect, 100 is complete control): 5
Barley plant response rating (0 to 100 scale) ([4]; 62 g ai/ha, postemergence, 0 is no effect, 100 is complete control, 13 to 15 days): 20
Plant response rating, Barley [4, 20]: 30
Plant response rating, Barley ([4]; Postemergence, 250 g ai/ha, scale 0 to 100 (0 no effect, 100 complete control)): 50
Plant response rating, Morningglory [5, 21]: 90
Plant response rating, Morningglory [5, 16]: 100
Plant response rating, Morningglory [5, 17]: 70
Plant response rating, Morningglory [5, 18]: 80
Plant response rating, Barnyardgrass [6, 21]: 80
Plant response rating, Barnyardgrass [6, 16]: 90
Plant response rating, Barnyardgrass [6, 17]: 40
Plant response rating, Barnyardgrass [6, 18]: 90
Plant response rating, Velvetleaf [7, 21]: 100
Plant response rating, Velvetleaf [7, 16]: 100
Plant response rating, Velvetleaf [7, 17]: 60
Plant response rating, Velvetleaf [7, 18]: 80
Plant response rating, Crabgrass, Large [8, 21]: 80
Plant response rating, Crabgrass, Large [8, 16]: 90
Plant response rating, Crabgrass, Large [8, 17]: 80
Plant response rating, Crabgrass, Large [8, 18]: 90
Plant response rating, Corn (corn (Zea mays); [21]): 0
Plant response rating, Corn (corn (Zea mays); [16]): 0
Plant response rating, Corn (corn (Zea mays); [17]): 0
Plant response rating, Corn (corn (Zea mays); [18]): 0
Plant response rating, Pigweed [9, 21]: 90
Plant response rating, Pigweed [9, 16]: 100
Plant response rating, Pigweed [9, 17]: 80
Plant response rating, Pigweed [9, 18]: 100
Plant response rating, Wheat [10, 21]: 0
Plant response rating, Wheat [10, 16]: 30
Plant response rating, Wheat [10, 17]: 0
Plant response rating, Wheat [10, 18]: 0
Plant response rating, Foxtail, Giant [11, 21]: 80
Plant response rating, Foxtail, Giant [11, 16]: 90
Plant response rating, Foxtail, Giant [11, 17]: 50
Plant response rating, Foxtail, Giant [11, 18]: 80
